From PubChem BioAssay AID1259407 (Chemical Carcinogenesis Research Information System (CCRIS), 2018)
The source made the active and inactive calls. No rule for the calls is given here.

System: CCRIS mutagenicity, Ames/micronucleus/aberration tests
Experiment: CCRIS mutagenicity studies
[1] = Test System: AMES SALMONELLA TYPHIMURIUM, Strain/Indicator: TA98, Metabolic Activation: NONE, Method: STANDARD PLATE
[2] = Test System: AMES SALMONELLA TYPHIMURIUM, Strain/Indicator: TA100, Metabolic Activation: NONE, Method: STANDARD PLATE

Measured: mutagenic call

O=CCCCC=O
active: End Point: IN VITRO CHROMOSOMAL ABERRATIONS, Test System: CHL CELLS, Metabolic Activation: RAT, LIVER, S-9, SODIUM PHENOBARBITAL AND 5,6-BENZOFLAVONE active; positive (structural and ploidy changes) | End Point: In vitro micronucleus, Test System: Chinese hamster V79 cells, Metabolic Activation: None active; positive (concentrations of 10 um and above strongly inhibited growth of cells, | Test System: AMES SALMONELLA TYPHIMURIUM, Strain/Indicator: TA100, Metabolic Activation: MOUSE LIVER S-9, AROCLOR 1254, Method: PREINCUBATION active; positive | Test System: AMES SALMONELLA TYPHIMURIUM, Strain/Indicator: TA100, Metabolic Activation: RAT LIVER S-9, AROCLOR 1254, Method: PREINCUBATION active; positive | Test System: AMES SALMONELLA TYPHIMURIUM, Strain/Indicator: TA102, Metabolic Activation: MOUSE LIVER S-9, AROCLOR 1254, Method: PREINCUBATION active; positive | Test System: AMES SALMONELLA TYPHIMURIUM, Strain/Indicator: TA102, Metabolic Activation: MOUSE LIVER S-9, AROCLOR-1254 (10%), Method: PREINCUBATION active; positive | Test System: AMES SALMONELLA TYPHIMURIUM, Strain/Indicator: TA102, Metabolic Activation: NONE, Method: PREINCUBATION active; positive | Test System: AMES SALMONELLA TYPHIMURIUM, Strain/Indicator: TA102, Metabolic Activation: RAT LIVER S-9, AROCLOR 1254, Method: PREINCUBATION active; positive | Test System: AMES SALMONELLA TYPHIMURIUM, Strain/Indicator: TA102, Metabolic Activation: RAT LIVER S-9, AROCLOR-1254 (10%), Method: PREINCUBATION active; positive | Test System: AMES SALMONELLA TYPHIMURIUM, Strain/Indicator: TA104, Metabolic Activation: MOUSE LIVER S-9, AROCLOR 1254, Method: PREINCUBATION active; positive | Test System: AMES SALMONELLA TYPHIMURIUM, Strain/Indicator: TA104, Metabolic Activation: MOUSE LIVER S-9, AROCLOR-1254 (10%), Method: PREINCUBATION active; positive | Test System: AMES SALMONELLA TYPHIMURIUM, Strain/Indicator: TA104, Metabolic Activation: NONE, Method: PREINCUBATION active; positive | Test System: AMES SALMONELLA TYPHIMURIUM, Strain/Indicator: TA104, Metabolic Activation: RAT LIVER S-9, AROCLOR 1254, Method: PREINCUBATION active; positive | Test System: AMES SALMONELLA TYPHIMURIUM, Strain/Indicator: TA104, Metabolic Activation: RAT LIVER S-9, AROCLOR-1254 (10%), Method: PREINCUBATION active; positive | Test System: AMES SALMONELLA TYPHIMURIUM, Strain/Indicator: TA2638, Metabolic Activation: NONE, Method: STANDARD PLATE active; positive | Test System: AMES SALMONELLA TYPHIMURIUM, Strain/Indicator: TA2638A, Metabolic Activation: NONE, Method: STANDARD PLATE active; positive | Test System: E. COLI, Strain/Indicator: WP2 UVRA (PKM101), Metabolic Activation: NONE, Method: STANDARD PLATE active; positive | Test System: MOUSE LYMPHOMA, Strain/Indicator: L5178Y (TRIFLUOROTHYMIDINE), Metabolic Activation: NONE, Method: SUSPENSION/PLATE active; positive | Test System: UDS RODENT HEPATOCYTES, Strain/Indicator: THY INCORP (NON-S-PHASE), Metabolic Activation: NONE, Method: AUTORADIOGRAPHY active; positive
inactive: End Point: IN VITRO CHROMOSOMAL ABERRATIONS, Test System: SYRIAN HAMSTER EMBRYO (SHE) CELLS, Metabolic Activation: NONE inactive; negative | End Point: IN VITRO CHROMOSOMAL ABERRATIONS, Test System: SYRIAN HAMSTER EMBRYO (SHE) CELLS, Metabolic Activation: RAT, LIVER, S-9 inactive; negative | End Point: In vitro micronucleus, Test System: Chinese hamster V79 cells, Metabolic Activation: None, Method: FISH inactive; positive (majority were centromer negative. authors attribute results as showing | Test System: AMES SALMONELLA TYPHIMURIUM, Strain/Indicator: TA97A, Metabolic Activation: NONE, Method: STANDARD PLATE inactive; negative | Test System: AMES SALMONELLA TYPHIMURIUM, Strain/Indicator: TA98, Metabolic Activation: HAMSTER LIVER S-9, AROCLOR-1254 (10%), Method: PREINCUBATION inactive; negative | [1] inactive; negative | Test System: AMES SALMONELLA TYPHIMURIUM, Strain/Indicator: TA98, Metabolic Activation: RAT LIVER S-9, AROCLOR-1254 (10%), Method: PREINCUBATION inactive; negative | Test System: AMES SALMONELLA TYPHIMURIUM, Strain/Indicator: TA98, Metabolic Activation: RAT LIVER S-9, PHENOBARBITAL AND BETA-NAPHTHOFLAVONE, Method: PREINCUBATION inactive; negative | Test System: AMES SALMONELLA TYPHIMURIUM, Strain/Indicator: TA100, Metabolic Activation: HAMSTER LIVER S-9, AROCLOR-1254 (10%), Method: PREINCUBATION inactive; negative | [2] inactive; negative | Test System: AMES SALMONELLA TYPHIMURIUM, Strain/Indicator: TA100, Metabolic Activation: RAT LIVER S-9, PHENOBARBITAL AND BETA-NAPHTHOFLAVONE NONE, Method: PREINCUBATION inactive; negative | Test System: AMES SALMONELLA TYPHIMURIUM, Strain/Indicator: TA104, Metabolic Activation: NONE, Method: STANDARD PLATE inactive; negative | Test System: AMES SALMONELLA TYPHIMURIUM, Strain/Indicator: TA1535, Metabolic Activation: HAMSTER LIVER S-9, AROCLOR-1254 (10%), Method: PREINCUBATION inactive; negative | Test System: AMES SALMONELLA TYPHIMURIUM, Strain/Indicator: TA1535, Metabolic Activation: NONE, Method: PREINCUBATION inactive; negative | Test System: AMES SALMONELLA TYPHIMURIUM, Strain/Indicator: TA1535, Metabolic Activation: RAT LIVER S-9, AROCLOR-1254 (10%), Method: PREINCUBATION inactive; negative | Test System: AMES SALMONELLA TYPHIMURIUM, Strain/Indicator: TA1535, Metabolic Activation: RAT LIVER S-9, PHENOBARBITAL AND BETA-NAPHTHOFLAVONE NONE, Method: PREINCUBATION inactive; negative | Test System: AMES SALMONELLA TYPHIMURIUM, Strain/Indicator: TA1537, Metabolic Activation: HAMSTER LIVER S-9, AROCLOR-1254 (10%), Method: PREINCUBATION inactive; negative | Test System: AMES SALMONELLA TYPHIMURIUM, Strain/Indicator: TA1537, Metabolic Activation: NONE, Method: PREINCUBATION inactive; negative | Test System: AMES SALMONELLA TYPHIMURIUM, Strain/Indicator: TA1537, Metabolic Activation: RAT LIVER S-9, AROCLOR-1254 (10%), Method: PREINCUBATION inactive; negative | Test System: AMES SALMONELLA TYPHIMURIUM, Strain/Indicator: TA1537, Metabolic Activation: RAT LIVER S-9, PHENOBARBITAL AND BETA-NAPHTHOFLAVONE NONE, Method: PREINCUBATION inactive; negative | Test System: E. COLI, Strain/Indicator: WP2UVRA, Metabolic Activation: NONE, Method: PREINCUBATION inactive; negative | Test System: E. COLI, Strain/Indicator: WP2UVRA, Metabolic Activation: RAT LIVER S-9, PHENOBARBITAL AND BETA-NAPHTHOFLAVONE, Method: PREINCUBATION inactive; negative

Cc1cn2c([N+](=O)[O-])c(-c3ccc([N+](=O)[O-])cc3)nc2s1
active: [1] active; positive | [2] active; positive | Test System: AMES SALMONELLA TYPHIMURIUM, Strain/Indicator: TA1535, Metabolic Activation: NONE, Method: STANDARD PLATE active; positive | Test System: AMES SALMONELLA TYPHIMURIUM, Strain/Indicator: TA1537, Metabolic Activation: NONE, Method: STANDARD PLATE active; positive | Test System: AMES SALMONELLA TYPHIMURIUM, Strain/Indicator: TA1538, Metabolic Activation: NONE, Method: STANDARD PLATE active; positive

NC(=O)/C=C/c1ccc([N+](=O)[O-])o1
active: Test System: AMES SALMONELLA TYPHIMURIUM, Strain/Indicator: TA98, Metabolic Activation: NONE, Method: PREINCUBATION active; positive | Test System: UDS HUMAN FIBROBLASTS, Strain/Indicator: THY INCORP (NON-S-PHASE), Metabolic Activation: NONE, Method: AUTORADIOGRAPHY active; positive

CCN(CCCC(=O)O)N=O
active: Test System: AMES SALMONELLA TYPHIMURIUM, Strain/Indicator: TA1535, Metabolic Activation: RAT, LIVER, S-9, KC500 OR PHENOBARBITAL, Method: LIQUID SUSPENSION active; positive
